This note sets out measurements from ChEMBL document CHEMBL6096705, “Identification of a Chemical Probe for BLT2 Activation by Scaffold Hopping” (J Med Chem, 2025).

In general, EC50 refers to the concentration at which the effect is half-maximal. What is called IC50 is the point on the concentration scale where inhibition reaches its midpoint. Lower therefore signals greater potency in that assay. The term solubility (kinetic) denotes the concentration staying in solution when a stock, usually in DMSO, is diluted into the medium. As usually defined, the AUC(0-inf) is the area under the concentration-time curve extrapolated to infinity. Usually half-life stands for the time in which the quantity being followed falls by half. Lower therefore signals fast loss. The Tmax is the time at which the peak concentration occurs. The bioavailability is the share of a dose that reaches the circulation, judged against a reference dose that is usually intravenous. As a reminder, the Cmax is the peak of the concentration-time curve. A word on the pEC50: it is the negative decadic logarithm of the EC50, by convention in mol/L. The low end stands for a high EC50, the high end for a low EC50. By pKd is commonly meant the Kd on a negative log10 scale, so that one unit is a factor of ten. A low value points to a large Kd.

The target of data set [1] is T1, Leukotriene B4 receptor 2 (Homo sapiens, UniProt Q9NPC1).
T1 sequence (Q9NPC1 whole entry): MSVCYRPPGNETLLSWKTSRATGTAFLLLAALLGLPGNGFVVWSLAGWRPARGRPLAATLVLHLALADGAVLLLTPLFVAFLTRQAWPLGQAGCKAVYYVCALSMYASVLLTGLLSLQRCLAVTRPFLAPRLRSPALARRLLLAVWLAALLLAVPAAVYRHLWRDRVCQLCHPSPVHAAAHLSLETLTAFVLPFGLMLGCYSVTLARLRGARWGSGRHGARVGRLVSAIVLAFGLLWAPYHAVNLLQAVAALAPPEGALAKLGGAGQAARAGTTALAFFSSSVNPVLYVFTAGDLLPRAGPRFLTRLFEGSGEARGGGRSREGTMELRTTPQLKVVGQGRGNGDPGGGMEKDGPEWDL
Briefly: Agonist activity at human BLT2 expressed in CHO-K1 cells overexpressing GNA14 assessed as induction of IP-1 accumulation incubated for 90 mins by HTRF assay. It is filed as functional, cell-based. (In TR-FRET formats the signal depends on donor and acceptor labels being close together.)

The target of data set [2] is T2, Type-1 angiotensin II receptor (Homo sapiens, UniProt P30556).
T2 sequence (P30556 whole entry): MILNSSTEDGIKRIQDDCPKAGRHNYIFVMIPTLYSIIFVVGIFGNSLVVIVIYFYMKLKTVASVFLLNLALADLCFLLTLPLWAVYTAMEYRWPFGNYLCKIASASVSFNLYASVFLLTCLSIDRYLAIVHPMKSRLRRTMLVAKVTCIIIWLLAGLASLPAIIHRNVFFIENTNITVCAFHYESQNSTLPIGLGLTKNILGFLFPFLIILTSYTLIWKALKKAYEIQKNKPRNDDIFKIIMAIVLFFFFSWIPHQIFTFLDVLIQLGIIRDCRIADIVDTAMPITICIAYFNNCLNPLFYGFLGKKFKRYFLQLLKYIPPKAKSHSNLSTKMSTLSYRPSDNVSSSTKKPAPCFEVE
Description: Antagonist activity at human AT1 receptor expressed in CHO-K1 cells co-expressing GNA14 assessed as inhibition of Val5-Angiotensin-II induced IP-1 accumulation incubated for 90 mins by HTRF assay

Data set [3] is described as follows: Aqueous solubility of compound in PBS buffer at pH 7.4 by precipitation based plate reader analysis. Format: physicochemical.
Data set [4] is described as follows: Metabolic stability in Sprague-Dawley rat liver microsomes assessed as parent compound remaining measured upto 60 mins in presence of NADPH by HPLC analysis. Format: ADME, Microsome. The following applies: read-out: Stability. (Microsomes from liver hold many membrane-bound enzymes, among them those of drug oxidation.)
The target of data set [5] is T1, Leukotriene B4 receptor 2. As to the kind of experiment: Displacement of FITC-labeled tracer from Lumi4 Tb-labeled BLT2 (unknown origin) expressed in CHO-K1 cells incubated for 1 hrs by Tag-lite displacement based HTRF assay. It is filed as cell-based.
The subject of the next data set is HepG2. Briefly: Cytotoxicity against human HepG2 cells assessed as effect on cell viability at 100 uM measured after 72 hrs by CellTiter-Glo assay. It is filed as toxicity, cell-based. Particulars: hepg2, 72 h. For orientation: In ATP-based viability assays light output follows the ATP content of the culture.
Data set [6] in a line: Cytotoxicity against human MRC9 cells assessed as effect on cell viability at 10 uM measured after 24 hrs by CellTiter-Glo assay. Format: toxicity, cell-based. Particulars: mrc9, 24 h.
The next data set deals with HEK-293T. Briefly: Cytotoxicity against HEK293T cells assessed as effect on cell viability at 10 uM measured after 24 hrs by CellTiter-Glo assay. It is filed as toxicity, cell-based. The following applies: human.
Data set [7] can be described thus: AUC (0 to infinity) in male C57BL/6J mouse at 3 mg/kg, iv by LC-MS analysis. Format: ADME, organism-based. The following applies: in vivo.
Data set [8] is described as follows: AUC (0 to infinity) in male C57BL/6J mouse at 10 mg/kg, po by LC-MS analysis. Format: ADME, organism-based. The following applies: in vivo.
The nature of data set [9]: Half-life in male C57BL/6J mouse at 10 mg/kg, po by LC-MS analysis. It is filed as ADME, organism-based. The following applies: in vivo.
Data set [10] in a line: Tmax in male C57BL/6J mouse at 10 mg/kg, po by LC-MS analysis. It is filed as ADME, organism-based. Particulars: in vivo.
The nature of data set [11]: Half-life in male C57BL/6J mouse at 3 mg/kg, iv by LC-MS analysis. Particulars: in vivo. Format: ADME, organism-based.
A short description of data set [12]: Toxicity in male C57BL/6J mouse assessed as effect on normal behavior at 10 mg/kg, po. It is filed as organism-based. The following applies: in vivo.
Data set [13] is described as follows: Toxicity in male C57BL/6J mouse assessed as effect on normal behavior at 3 mg/kg, iv. It is filed as organism-based. The following applies: in vivo.
Data set [14] in a line: Half-life in male C57BL/6J mouse at 10 mg/kg, SC by LC-MS analysis. The following applies: in vivo. It is filed as ADME, organism-based.
A short description of data set [15]: Oral bioavailability in male C57BL/6J mouse at 10 mg/kg by LC-MS analysis. Format: ADME, organism-based. Particulars: in vivo.
The nature of data set [16]: AUC (0 to infinity) in male C57BL/6J mouse at 10 mg/kg, SC by LC-MS analysis. It is filed as ADME, organism-based. Particulars: in vivo.
Data set [17] is described as follows: Toxicity in male C57BL/6J mouse assessed as effect on normal behavior at 10 mg/kg, SC. Format: organism-based. The following applies: in vivo.
The next data set deals with U2OS. Briefly: Cytotoxicity against human U2OS cells assessed as effect on cell viability at 10 uM measured after 24 hrs by CellTiter-Glo assay. Format: toxicity, cell-based.
Data set [18] can be described thus: Cmax in male C57BL/6J mouse at 10 mg/kg, po by LC-MS analysis. Format: ADME, organism-based. Particulars: in vivo.
Data set [19] can be described thus: Cmax in male C57BL/6J mouse at 3 mg/kg, iv by LC-MS analysis. Format: ADME, organism-based. Particulars: in vivo.
In data set [20] the target is T1, Leukotriene B4 receptor 2. Briefly: Agonist activity at BLT2 (unknown origin). Format: functional.
For data set [21], the target named is T1, Leukotriene B4 receptor 2. Briefly: Agonist activity at human BLT2 expressed in CHO-K1 cells overexpressing GNAi2 assessed as inhibition of forskolin-induced cAMP accumulation preincubated for 40 mins followed by forskolin addition and measured after 20 mins by HTRF assay. It is filed as functional, cell-based.
Data set [22] in a line: Binding affinity to BLT1 (unknown origin). Also on record: species or system Homo sapiens.

Converted amounts (≈) assume the structure as drawn.

`CCCCC(=O)N1Cc2cc(-c3ccccc3-c3nnn[nH]3)ccc2C1C` (stereo unspecified): the 50% effective concentration (EC50) in [1] amounted to 1.39 µM.
As to `CCCCC1(C)C(=O)N(Cc2ccc(-c3ccccc3C(=O)O)cc2)c2ccccc21` (stereo unspecified), the IC50 in [2] was 58 µM.
The molecule `CCc1nnc(N2Cc3ccc(-c4ccccc4-c4nnn[nH]4)cc3C2)o1` had a solubility (kinetic) in [3] of 750 µM (≈ 270 µg/mL). The remaining at 1 h in data set [4] was 101%. The molecule further gave a 50% inhibitory concentration (IC50) in [2] of 15.8 µM.
On to `CCCCC(=O)N(Cc1ccc(-c2ccccc2C(=O)O)cc1)c1ccccc1`, for which the IC50 in data set [5] was 0.063 µM; in data set [2], 53 µM. Moreover, in the data set on HepG2, the Activity entry is listed as “Non-toxic”. Also, in data set [3], the solubility (kinetic) is 250 µM (≈ 96.9 µg/mL). In addition, in [4], the remaining at 1 h was determined as 66%.
For the molecule `CCCCC(=O)N1CC2(C1)CN(c1ccccc1-c1nnn[nH]1)C2`, the Activity entry (in data set [6]; in the data set with HEK-293T; with HepG2; in data set [12]; in data set [13]; in [17]) was “Non-toxic” each time. The Activity result in the data set on U2OS is on record as “Non-toxic”. For the same molecule, the area under the curve AUC(0-inf) in data set [7] is 1020 ng·h/mL; in data set [8] it was 1730 ng·h/mL; in [16], 4080 ng·h/mL. Moreover, the figures for the half-life in [9], in [11] and in [14] were 154 min, 19 min and 62 min, respectively. Moreover, the Tmax in [10] is 15 min. In [15], this molecule showed a bioavailability of 51%. Besides, in [3], the kinetic solubility is no less than 1000 µM. Moreover, in data set [4], the remaining at 1 h was 97.5%. Moreover, the Cmax in data set [18] came out at 1990 ng/mL; in data set [19] it was 3290 ng/mL.
In turn, `CCCCC(=O)N1Cc2ccc(-c3ccccc3-c3nnn[nH]3)cc2C1` gave an IC50 in data set [2] greater than 400 µM.
With `CCc1cnc(N2Cc3ccc(-c4ccccc4-c4nnn[nH]4)cc3C2)s1`, the solubility (kinetic) in [3] was 250 µM (≈ 93.6 µg/mL). The remaining at 1 h in [4] came out at 89%. Besides, the IC50 in data set [2] is 79 µM.
Take `CCCCC1=NC2(CCCC2)C(=O)N1Cc1ccc(-c2ccccc2-c2nnn[nH]2)cc1` [IRBESARTAN]: in [5], the 50% inhibitory concentration (IC50) is no less than 1.5 µM.
Molecule `CCCCC(=O)N1CCC2(CC1)CCN(c1ccccc1-c1nnn[nH]1)C2` returned a solubility (kinetic) in data set [3] of no less than 1000 µM. Also, the remaining at 1 h in [4] was found to be 99.8%. In addition, the IC50 in data set [2] came out at 13.6 µM.
`CCCCC[C@H](O)/C=C/C=C/C/C=C\CCCC(=O)O` had a negative logarithm of the EC50 (pEC50) in [20] of 7.72. The half-maximal effective concentration (EC50) in data set [21] worked out at 0.0014 µM.
As for `CCCCC/C=C\C[C@@H](O)/C=C/C=C/C=C\[C@@H](O)CCCC(=O)O` [LEUKOTRIENE_B4], the pKd in [22] stood at 8.5.
On to `CCCCC(=O)N1CCc2ccc(-c3ccccc3C(=O)O)cc2C1`, for which the concentration giving a half-maximal response (EC50) in data set [1] is 18.4 µM.
